According to patent publication US10077309B2, “Compositions and methods for targeting of the surfactant protein A receptor” (The Penn State Research Foundation, priority 2014, dated 2018):

Tested on: IAV infection of macrophages / influenza binding to SP-R210
Format: cell-based, influenza A virus

Substance	competition with influenza virus for binding to the receptor SP-R210	block of infection of macrophages with IAV (flow cytometry)
SP-A: human surfactant protein A isolated from therapeutic lung lavage of alveolar proteinosis patients	competitively inhibits binding of the influenza virus to the receptor	
desialylated SP-A: desialylated surfactant protein A	compete for influenza binding to the same receptor	blocks infection of macrophages with IAV
